Key:
Type in all cases: biochemical
human ST6Gal I = target: T1, human ST6Gal I (Homo sapiens, UniProt P15907); test: Sialyltransferase activity of human ST6Gal I toward acceptor substrates (comparison); conditions: for Relative rate (%) Human ST6Gal I: incorporation with Galβ1,4GlcNAc taken as 100, 0.5 mg/ml glycolipids, 1 mg/ml glycoproteins and oligosaccharides
T1 sequence (P15907 1-406): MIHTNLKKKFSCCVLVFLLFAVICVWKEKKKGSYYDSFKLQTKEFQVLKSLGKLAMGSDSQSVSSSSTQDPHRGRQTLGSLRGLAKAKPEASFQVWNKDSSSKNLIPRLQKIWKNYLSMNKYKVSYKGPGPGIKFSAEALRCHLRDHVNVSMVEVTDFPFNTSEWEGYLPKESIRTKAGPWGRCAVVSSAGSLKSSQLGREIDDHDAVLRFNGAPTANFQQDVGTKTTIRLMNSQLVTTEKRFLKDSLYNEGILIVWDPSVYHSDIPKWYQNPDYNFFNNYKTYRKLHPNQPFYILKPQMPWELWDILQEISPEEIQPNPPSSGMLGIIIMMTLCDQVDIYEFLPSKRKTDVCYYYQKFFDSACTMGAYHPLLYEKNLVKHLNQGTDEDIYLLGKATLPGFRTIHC
Protocol: (§1) Using each expression vector and lipofectamine (Invitrogen), transient expression was carried out in COS-7 cells (Kojima, N. et al. (1995) FEBS Lett. 360, 1-4). The proteins of the present invention secreted from the cells into which each expression vector had been introduced were named as PA-hST6Gal II (human) and PA-mST6Gal II (mouse). PA-hST6Gal II and PA-mST6Gal II were adsorbed to IgG-Sepharose (Amersham Pharmacia Biotech), and were then recovered from medium. Sialyltransferase activity was measured as follows according to the method of Lee et al. (Lee, Y.-C. et al. (1999) J Biol. Chem. 274, 11958-11967). A reaction mixture (10 μl) containing 50 mM MES buffer (pH 6.0), 1 mM MgCl2, 1 mM CaCl2, 0.5% Triton CF-54, 100 μM CMP-[^14C]-NeuAc, a substrate sugar chain (which was added at 0.5 mg/ml in the case of glycolipids, and at 1 mg/ml in the case of glycoproteins or oligosaccharides), and a PA-hST6Gal II or PA-mST6Gal II suspension, was incubated at 37° C. for 3 to 20 hours. Thereafter, in the case of glycolipids, the reaction product was purified with a C-18 column (Sep-Pak Vac 100 mg; Waters) and the purified product was used as a sample. In the case of oligosaccharides or glycoproteins, the reaction product was directly used as a sample. Thus, the obtained sample was subjected to analysis. In the case of oligosaccharides or glycolipids, the sample was spotted on a silica gel 60 HPTLC plate (Merck), and it was then developed with a developing solvent consisting of 1-propanol:ammonia water:water=6:1:2.5 (for oligosaccharides), or a developing solvent consisting of chloroform:methanol: 0.02% CaCl2=55:45:10 (for glycolipids). In the case of glycoproteins, analysis was carried out by SDS-polyacrylamide gel electrophoresis. The obtained radioactivities were visualized with a BAS2000 radio image analyzer (Fuji Film) and then quantified.
In contrast, there were no glycolipids, which could be substrates of both the enzymes, as far as the inventors have examined. The activity of human ST6Gal I on oligosaccharides was also examined for comparison. […] (FIG. 10).

[1] = target: T2, PA-mST6Gal II (mouse ST6Gal II) (Mus musculus, UniProt Q76K27, R48S); test: Sialyltransferase activity of PA-mST6Gal II toward acceptor substrates; conditions: PA-mST6Gal II; incorporation with Galβ1,4GlcNAc taken as 100; 0.5 mg/ml glycolipids, 1 mg/ml glycoproteins and oligosaccharides
T2 construct: amino acids 31-524 in the case of mouse ST6Gal II; signal peptide of mouse immunoglobulin IgM (N); made in house; host or cells: COS-7 cells, transient expression of pcDSA-mST6Gal II; protein recovered from medium on IgG-Sepharose
T2 sequence (Q76K27 31-524 R48S): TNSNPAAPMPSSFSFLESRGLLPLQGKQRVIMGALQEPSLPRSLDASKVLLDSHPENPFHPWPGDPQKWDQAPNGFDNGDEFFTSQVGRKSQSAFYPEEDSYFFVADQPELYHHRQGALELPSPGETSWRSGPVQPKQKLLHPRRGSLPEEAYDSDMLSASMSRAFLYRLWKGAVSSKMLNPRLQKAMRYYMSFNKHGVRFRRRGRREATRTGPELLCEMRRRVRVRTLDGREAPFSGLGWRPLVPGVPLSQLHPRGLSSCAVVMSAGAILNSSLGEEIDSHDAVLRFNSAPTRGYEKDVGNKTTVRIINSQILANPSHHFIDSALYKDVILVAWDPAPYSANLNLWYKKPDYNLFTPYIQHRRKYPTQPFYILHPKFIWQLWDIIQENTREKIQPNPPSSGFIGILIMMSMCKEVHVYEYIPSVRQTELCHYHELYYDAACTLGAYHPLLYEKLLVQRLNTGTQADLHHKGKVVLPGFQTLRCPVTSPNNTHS
Protocol: as §1

[2] = target: T3, PA-hST6Gal II (human ST6Gal II) (Homo sapiens, UniProt Q96JF0); test: Sialyltransferase activity of PA-hST6Gal II toward acceptor substrates; conditions: PA-hST6Gal II; incorporation with Galβ1,4GlcNAc taken as 100; 0.5 mg/ml glycolipids, 1 mg/ml glycoproteins and oligosaccharides
T3 construct: amino acids 33-529 in the case of human ST6Gal II; signal peptide of mouse immunoglobulin IgM (N); made in house; host or cells: COS-7 cells, transient expression of pcDSA-hST6Gal II; protein recovered from medium on IgG-Sepharose
T3 sequence (Q96JF0 33-529): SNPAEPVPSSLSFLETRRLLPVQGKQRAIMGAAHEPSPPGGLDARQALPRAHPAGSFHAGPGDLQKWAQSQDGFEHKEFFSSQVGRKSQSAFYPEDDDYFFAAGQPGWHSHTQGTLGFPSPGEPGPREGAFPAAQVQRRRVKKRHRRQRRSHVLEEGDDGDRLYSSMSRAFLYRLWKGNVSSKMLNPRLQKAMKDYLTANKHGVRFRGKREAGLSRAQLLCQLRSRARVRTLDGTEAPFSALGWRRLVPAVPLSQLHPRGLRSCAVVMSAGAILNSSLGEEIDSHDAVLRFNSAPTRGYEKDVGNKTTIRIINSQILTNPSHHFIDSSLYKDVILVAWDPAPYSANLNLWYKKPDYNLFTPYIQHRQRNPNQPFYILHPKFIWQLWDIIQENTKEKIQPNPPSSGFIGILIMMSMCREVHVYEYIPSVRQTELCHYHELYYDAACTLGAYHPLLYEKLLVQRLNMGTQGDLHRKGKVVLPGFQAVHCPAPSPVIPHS
Protocol: as §1

[3] = target: T4, PA-mST8Sia VI (mouse ST8Sia VI) (Mus musculus, UniProt Q8K4T1); test: Sialyltransferase activity of PA-mST8Sia VI toward acceptor substrates; conditions: for Relative rate (%) Mouse ST8SiaVI: incorporation with Fetuin taken as 100, substrate 0.5 mg/ml glycolipids, 1 mg/ml glycoproteins, monosaccharides and oligosaccharides
T4 construct: amino acids 26-398 in the case of mouse ST8Sia VI; signal peptide of mouse immunoglobulin IgM (N); made in house; host or cells: COS-7 cells, transient expression of pcDSA-mST8Sia VI; protein recovered from medium on IgG-Sepharose
T4 sequence (Q8K4T1 26-398): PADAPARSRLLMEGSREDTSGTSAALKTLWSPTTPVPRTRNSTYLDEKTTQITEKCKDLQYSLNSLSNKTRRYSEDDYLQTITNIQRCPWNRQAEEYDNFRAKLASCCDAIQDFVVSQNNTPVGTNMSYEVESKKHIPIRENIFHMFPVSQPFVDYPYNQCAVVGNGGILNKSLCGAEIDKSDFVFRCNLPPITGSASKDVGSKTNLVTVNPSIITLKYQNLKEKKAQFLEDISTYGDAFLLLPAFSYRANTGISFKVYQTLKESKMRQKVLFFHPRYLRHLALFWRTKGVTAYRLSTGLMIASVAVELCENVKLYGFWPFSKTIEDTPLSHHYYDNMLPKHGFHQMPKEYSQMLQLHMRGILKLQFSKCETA
Protocol: Using each expression vector and lipofectamine (Invitrogen), transient expression was carried out in COS-7 cells (Kojima, N. et al. (1995) FEBS Lett. 360, 1-4). The proteins of the present invention secreted from the cells into which each expression vector had been introduced were named as PA-mST8Sia VI (mouse) and PA-hST8Sia VI (human). PA-mST8Sia VI and PA-hST8Sia VI were adsorbed to IgG-Sepharose (Amersham Pharmacia Biotech), and were then recovered from medium. Sialyltransferase activity was measured as follows according to the method of Lee et al. (Lee, Y.-C. et al. (1999) J. Biol. Chem. 274, 11958-11967). A reaction solution (10 μl) containing 50 mM MES buffer (pH 6.0), 1 mM MgCl2, 1 mM CaCl2, 0.5% Triton CF-54, 100 μM CMP-[^14C]-NeuAc, a glycoconjugate (which was added at 0.5 mg/ml in the case of glycolipids, and at 1 mg/ml in the case of glycoproteins or oligosaccharides), and a PA-mST8Sia VI or PA-hST8Sia VI suspension, was incubated at 37° C. for 3 to 20 hours. Thereafter, in the case of glycolipids, the reaction product was purified with a C-18 column (Sep-Pak Vac 100 mg; Waters) and the purified product was used as a sample, and in the case of oligosaccharides or glycoproteins, the reaction product was directly used as a sample. Thus, the obtained samples were subjected to analysis. In the case of oligosaccharides or glycolipids, the sample was spotted on a silica gel 60 HPTLC plate (Merck), and was then developed with a developing solvent consisting of ethanol:pyridine:n-butanol:water:acetic acid=100:10:10:30:3 (for oligosaccharides), a developing solvent consisting of 1-propanol:ammonia water:water=6:1:2.5 (for oligosaccharides), or a developing solvent consisting of chloroform:methanol: 0.02% CaCl2=55:45:10 (for glycolipids). In the case of glycoproteins, analysis was carried out by SDS-polyacrylamide gel electrophoresis. The obtained radioactivities were visualized with a BAS2000 radio image analyzer (Fuji Film) and then quantified.

Relative rate (%) Mouse ST8SiaVI [3]	activity of PA-mST8Sia VI on the substrate (in words) [3]	Compound	further results
2.6%	showed activity	NeuAcα2,6Galβ1,3GalNAcβ1,4Galβ1,4Glcβ1-Cer [GSC-68]	–
1.0%	showed activity	NeuAcα2,3Galβ1,3GalNAcβ1,4Galβ1,4Glcβ1-Cer [GM1b]	–
0%	–	Galβ1,3GalNAcβ1,4(NeuAcα2,8NeuAcα2,3)Galβ1,4Glcβ1-Cer [GD1b]	–
1.0%	showed activity	NeuAcα2,3Galβ1-Cer [GM4]	–

Further lines, the compound ahead of its results:

Compound	Relative rate (%) Mouse ST8SiaVI [3]	activity of PA-mST8Sia VI on the substrate (in words) [3]	further results
CC(=O)N[C@H]1C(O)O[C@H](CO)[C@H](O)[C@@H]1O[C@@H]1O[C@H](CO)[C@H](O)[C@H](O)[C@H]1O (stereo partly shown) [Type III, Galβ1,3GalNAc]	–	–	Relative rate (%) Human ST6Gal I (human ST6Gal I): 0%; Relative rate (%) Mouse ST6Gal II [1]: 0%; Relative rate (%) Human ST6Gal II [2]: 0%
CC(=O)N[C@H]1[C@H]([C@H](O)[C@H](O)CO)O[C@@](O[C@H]2[C@@H](O)[C@@H](CO)OC(O)[C@@H]2O)(C(=O)O)C[C@@H]1O (stereo partly shown) [3′-Sialylgalactose, NeuAcα2,3Gal]	13.9%	–	–
OC[C@H]1O[C@@H](O[C@H]2[C@H](O)[C@@H](O)C(O)O[C@@H]2CO)[C@H](O)[C@@H](O)[C@H]1O (stereo partly shown) [Lactose, Galβ1,4Glc]	–	–	activity of human ST6Gal I on the substrate (in words) (human ST6Gal I): showed activity; Relative rate (%) Human ST6Gal I (human ST6Gal I): 8.7%; Relative rate (%) Mouse ST6Gal II [1]: 0%; Relative rate (%) Human ST6Gal II [2]: 0%
CC(=O)N[C@H]1[C@H]([C@H](O)[C@H](O)CO)O[C@@](OC[C@H]2OC(O)[C@H](O)[C@@H](O)[C@H]2O)(C(=O)O)C[C@@H]1O (stereo partly shown) [6′-Sialylgalactose, NeuAcα2,6Gal]	2.0%	–	–
NeuAcα2,3Galβ1,4GlcNAcβ1,3Galβ1,4Glcβ1-Cer [2,3-SPG]	3.5%	showed activity	–
CC(=O)N[C@H]1[C@H]([C@H](O)[C@H](O)CO)OC(O)(C(=O)O)C[C@@H]1O (stereo partly shown) [N-Acetylneuraminic acid]	0%	–	–
CC(=O)N[C@@H]1[C@@H](O)[C@H](O[C@@H]2O[C@H](CO[C@]3(C(=O)O)C[C@H](O)[C@@H](NC(C)=O)[C@H]([C@H](O)[C@H](O)CO)O3)[C@H](O)[C@H](O)[C@H]2O)[C@@H](CO)O[C@H]1O [6′-Sialyl-N-acetyllactosamine, NeuAcα2,6Galβ1,4GlcNAc]	88.7%	–	–
CC(=O)NC1C(O)OC(CO)C(OC2OC(CO)C(O)C(OC3(C(=O)O)CC(O)C(NC(C)=O)C(C(O)C(O)CO)O3)C2O)C1O (stereo not shown) [3′-Sialyl-N-acetyllactosamine, NeuAcα2,3Galβ1,4GlcNAc]	411%	–	–
NeuAcα2,6Galβ1,4GlcNAcβ1,3Galβ1,4Glcβ1-Cer [2,6-SPG]	0.98%	showed activity	–
O=C[C@H](O)[C@@H](O)[C@@H](O)[C@H](O)CO [Galactose]	0%	–	–
CC(=O)N[C@H]1C(O)O[C@H](CO)[C@H](O)[C@@H]1O (stereo partly shown) [N-Acetylgalactosamine]	0%	–	–

From patent US20060057696A1, “Sugar chain synthases” (priority 2002, published 2006)
